In patent US8735406B2, “8-oxodihydropurine derivative” (Dainippon Sumitomo Pharma Co., Ltd., priority 2009, dated 2014):
Read-outs that look alike come from different tables or passages of the source.

Target: T1, FAAH (Rattus norvegicus, UniProt P97612)
T1 construct: Preparation of Rat Brain Membranes Preparations (FAAH Enzyme Solution); from tissue; host or cells: rat cerebrum (brain membrane preparation)
T1 sequence (P97612 1-579): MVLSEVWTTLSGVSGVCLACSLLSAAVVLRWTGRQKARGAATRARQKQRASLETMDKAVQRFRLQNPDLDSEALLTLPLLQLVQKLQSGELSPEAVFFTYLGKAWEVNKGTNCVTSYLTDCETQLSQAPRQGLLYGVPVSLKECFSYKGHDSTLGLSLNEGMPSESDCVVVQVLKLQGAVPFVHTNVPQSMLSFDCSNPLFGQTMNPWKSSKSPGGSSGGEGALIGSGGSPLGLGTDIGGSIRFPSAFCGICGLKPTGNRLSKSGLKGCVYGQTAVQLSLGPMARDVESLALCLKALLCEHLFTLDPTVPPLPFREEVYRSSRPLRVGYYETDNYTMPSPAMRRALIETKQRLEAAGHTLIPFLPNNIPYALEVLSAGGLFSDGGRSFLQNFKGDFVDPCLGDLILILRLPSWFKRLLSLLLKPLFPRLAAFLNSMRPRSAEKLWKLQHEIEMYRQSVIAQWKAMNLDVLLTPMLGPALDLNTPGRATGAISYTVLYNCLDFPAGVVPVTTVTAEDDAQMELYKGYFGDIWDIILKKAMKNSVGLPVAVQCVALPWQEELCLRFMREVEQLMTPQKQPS
Assay: Determination of FAAH inhibitory activity in rat (rat brain membrane preparations, [3H]-anandamide hydrolysis)
Format: biochemical
Conditions: for IC50: read-out: FAAH Inhibition IC50
How it was run: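 Compounds tested from 0.1 nM to 1 μM to derive IC50 against FAAH hydrolysis in rat brain membrane preparations (100 μg/mL). A 10-min 37 °C preincubation was followed by 10 min with [3H]-anandamide (2 nM) mixed with 2 μM unlabelled anandamide. Radioactive ethanolamine was extracted into the water/methanol layer and counted.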

[1] = rat brain membrane preparations, 100 nM test substance, read-out: FAAH Inhibition, Inhibition Rate at 100 nM
[2] = rat brain membrane preparations, test substance 0.1 nM to 1 μM
[3] = at 100 nM, rat brain membrane preparations, read-out: FAAH Inhibition Inhibition Rate at 100 nM
[4] = rat brain membrane preparations

inhibition at 0.1 µM [1] [%]	IC50 [2] [nM]	inhibition at 0.1 µM [3] [%]	IC50 [4] [nM]	Structure (SMILES)	inhibition at 0.1 µM (read-out: FAAH Inhibition, Inhibition Rate at 100 nM) [%]
99	27			CN(CCc1ccc(Cl)cc1)C(=O)n1c(=O)n(C)c2nc(C3CC3)ncc21 [Example 153, N-[2-(4-Chlorophenyl)ethyl]-2-cyclopropyl-N,9-dimethyl-8-oxo-8,9-dihydro-7H-purine-7-carboxamide]	
101	10			COCCc1ncc2c(n1)n(C)c(=O)n2C(=O)N1CC(c2cccc(C(F)(F)F)c2)C1 [compound 393]	
76	86			COc1cccc(-c2ncc3c(n2)n(C(=O)N2CCC2)c(=O)n3C)c1 [compound 355]	
103	8			CCOc1ccc(-c2ncc3c(n2)n(C)c(=O)n3C(=O)N2CCCC2)cn1 [compound 210]	
105	9			COCCc1ncc2c(n1)n(C)c(=O)n2C(=O)N1CC(c2ccccc2)C1 [compound 389]	
99	16			Cn1c(=O)n(C(=O)N2CCC2)c2nc(CCc3ccc(C4CC4)cc3)ncc21 [compound 573]	
98	7			CN(CCCCc1ccccc1)C(=O)n1c(=O)n(C)c2nc(-c3ccccc3)ncc21 [Example 36, N,9-Dimethyl-8-oxo-2-phenyl-N-(4-phenylbutyl)-8,9-dihydro-7H-purine-7-carboxamide]	
99	24			COc1ccc(Cc2ncc3c(n2)n(C)c(=O)n3C(=O)N2CCCC2)cc1 [Example 262, 2-(4-Methoxybenzyl)-9-methyl-7-(pyrrolidin-1-ylcarbonyl)-7,9-dihydro-8H-purine-8-one]	
98	6			COc1cccc(-c2ncc3c(n2)n(C)c(=O)n3C(=O)N2CCC(CCc3ccc(Cl)cc3)CC2)c1 [Example 68, 7-({4-[2-(4-Chlorophenyl)ethyl]piperidin-1-yl}carbonyl)-2-(3-methoxyphenyl)-9-methyl-7,9-dihydro-8H-purine-8-one]	
99	24			Cn1c(=O)n(C(=O)N2CCCC2)c2cnc(-c3ccccc3F)nc21 [Example 166, 2-(2-fluorophenyl)-9-methyl-7-(pyrrolidin-1-ylcarbonyl)-7,9-dihydro-8H-purine-8-one]	
96	4			CN(C)C(=O)n1c(=O)n(C)c2cnc(CCc3cccc(Cl)c3)nc21 [compound 520]	
99	7			Cn1c(=O)n(C(=O)N2CCCC2)c2cnc(-c3cc4ccccc4o3)nc21 [Example 216]	
97	7			COc1cccc(-c2ncc3c(n2)n(C)c(=O)n3C(=O)N2CCN(CCc3ccccc3)CC2)c1 [Example 67, 2-(3-Methoxyphenyl)-9-methyl-7-{[4-(2-phenylethyl-)piperazin-1-yl]carbonyl}-7,9-dihydro-8H-purine-8-one]	
78	38			CN(C)C(=O)n1c(=O)n(C)c2cnc(-c3cccc(C(F)F)c3)nc21 [Example 332, 2-[3-(Difluoromethyl)phenyl]-N,N,7-trimethyl-8-oxo-7,8-dihydro-9H-purine-9-carboxamide]	
99	10			COc1ccc(/C=C/c2ncc3c(n2)n(C)c(=O)n3C(=O)N2CCCC2)cc1 [Example 4, 2-[(E)-2-(4-Methoxyphenyl)ethenyl]-9-methyl-7-(pyrrolidin-1-ylcarbonyl)-7,9-dihydro-8H-purine-8-one]	
94	28			CN(C)C(=O)n1c(=O)n(C)c2cnc(CCc3ccc(F)cc3F)nc21 [Example 506, 2-[2-(2,4-Difluorophenyl)ethyl]-N,N,7-trimethyl-8-oxo-7,8-dihydro-9H-purine-9-carboxamide]	

inhibition at 0.1 µM [1] [%]	IC50 [2] [nM]	inhibition at 0.1 µM [3] [%]	IC50 [4] [nM]	Structure (SMILES)	inhibition at 0.1 µM (read-out: FAAH Inhibition, Inhibition Rate at 100 nM) [%]
27	> 100			CCN(C)C(=O)n1c(=O)n(C)c2nc(C)ncc21 [Example 163]	
72	38			CCN(C)C(=O)n1c(=O)n(C)c2nc(C3CCCCC3)ncc21 [Example 162, 2-Cyclohexyl-N-ethyl-N,9-dimethyl-8-oxo-8,9-dihydro-7H-purine-7-carboxamide]	
80	5			COCCCc1ncc2c(n1)n(C)c(=O)n2C(=O)N1CC(c2cccc(F)c2)C1 [Example 382]	
96	10			COc1cccc(OCc2ncc3c(n2)n(C)c(=O)n3C(=O)N2CCC2)c1 [Example 404, 7-(Azetidin-1-ylcarbonyl)-2-[(3-methoxyphenoxy)methyl]-9-methyl-7,9-dihydro-8H-purine-8-one]	
92	46			Cn1c(=O)n(C(=O)N2CCCC2)c2cnc(-c3ccc(OC(F)(F)F)c(F)c3)nc21 [compound 198]	
41	153			CN(C)C(=O)n1c(=O)n(C)c2cnc(CCc3cccc(C(F)F)c3)nc21 [compound 537]	
103	2			COCc1ncc2c(n1)n(C)c(=O)n2C(=O)N1CC(COc2ccc(F)cc2)C1 [Example 492, 7-({3-[(4-Fluorophenoxy)methyl]azetidin-1-yl}carbonyl)-2-(methoxymethyl)-9-methyl-7,9-dihydro-8H-purine-8-one]	
103	11			Cn1c(=O)n(C(=O)N2CCCC2)c2nc(CCc3cccc(C(F)(F)F)c3)ncc21 [Example 313, 7-Methyl-9-(pyrrolidin-1-ylcarbonyl)-2-{2-[3-(trifluoromethyl)phenyl]ethyl}-7,9-dihydro-8H-purine-8-one]	
33	> 100			Cn1c(=O)n(C(=O)N2CCCC2)c2nc(-c3cccnc3)ncc21 [Example 248]	
		100	10	CCCn1c(=O)n(C(=O)N(C)C)c2nc(CCc3cccc(F)c3)ncc21 [Example 647, 2-[2-(3-Fluorophenyl)ethyl]-N,N-dimethyl-8-oxo-7-propyl-7,8-dihydro-9H-purine-9-carboxamide]	
103	1			COc1cccc(-c2ncc3c(n2)n(C)c(=O)n3C(=O)N(C)CCOc2ccc(F)cc2)c1 [Example 91, N-[2-(4-Fluorophenoxy)ethyl]-2-(3-methoxyphenyl)-N,9-dimethyl-8-oxo-8,9-dihydro-7H-purine-7-carboxamide]	
79	27			CN(C)C(=O)n1c(=O)n(C)c2cnc(CCc3ccc(OC(F)F)cc3)nc21 [Example 493, 2-{2-[4-(difluoromethoxy)phenyl]ethyl}-N,N,7-trimethyl-8-oxo-7,8-dihydro-9H-purine-9-carboxamide]	
		88	44	CCc1ncc2c(n1)n(C(=O)N1CC(c3cccc(F)c3)C1)c(=O)n2C [Example 635]	
92	19			Cn1c(=O)n(C(=O)N2CCC2)c2nc(COc3ccccc3Cl)ncc21 [Example 427]	
93	46			COc1ccc(CCc2ncc3c(n2)n(C)c(=O)n3C(=O)N2CCCC2)cc1 [Example 12, 2-[2-(4-Methoxyphenyl)ethyl]-9-methyl-7-(pyrrolidin-1-ylcarbonyl)-7,9-dihydro-8H-purine-8-one]	

Structure (SMILES)	inhibition at 0.1 µM [1] [%]	IC50 [2] [nM]	inhibition at 0.1 µM [3] [%]	IC50 [4] [nM]	inhibition at 0.1 µM (read-out: FAAH Inhibition, Inhibition Rate at 100 nM) [%]
CN(CCCc1ccccc1)C(=O)n1c(=O)n(C)c2nc(-c3ccccc3)ncc21 [Example 35, N,9-Dimethyl-8-oxo-2-phenyl-N-(3-phenylpropyl)-8,9-dihydro-7H-purine-7-carboxamide]		8			100
